Reference: PMC5648786, “Characterization of a dual function macrocyclase enables design and use of efficient macrocyclization substrates” (Nature Communications, 2017)
No end group written: not given here.

T1: GmPOPB-S577A (inactive mutant) (Galerina marginata, UniProt H2E7Q8, S577A)
T1 construct: His-tag (TEV-cleavable) (cleaved yes); made in house; host or cells: E. coli BL21(DE3)
T1 sequence (H2E7Q8 1-730 S577A): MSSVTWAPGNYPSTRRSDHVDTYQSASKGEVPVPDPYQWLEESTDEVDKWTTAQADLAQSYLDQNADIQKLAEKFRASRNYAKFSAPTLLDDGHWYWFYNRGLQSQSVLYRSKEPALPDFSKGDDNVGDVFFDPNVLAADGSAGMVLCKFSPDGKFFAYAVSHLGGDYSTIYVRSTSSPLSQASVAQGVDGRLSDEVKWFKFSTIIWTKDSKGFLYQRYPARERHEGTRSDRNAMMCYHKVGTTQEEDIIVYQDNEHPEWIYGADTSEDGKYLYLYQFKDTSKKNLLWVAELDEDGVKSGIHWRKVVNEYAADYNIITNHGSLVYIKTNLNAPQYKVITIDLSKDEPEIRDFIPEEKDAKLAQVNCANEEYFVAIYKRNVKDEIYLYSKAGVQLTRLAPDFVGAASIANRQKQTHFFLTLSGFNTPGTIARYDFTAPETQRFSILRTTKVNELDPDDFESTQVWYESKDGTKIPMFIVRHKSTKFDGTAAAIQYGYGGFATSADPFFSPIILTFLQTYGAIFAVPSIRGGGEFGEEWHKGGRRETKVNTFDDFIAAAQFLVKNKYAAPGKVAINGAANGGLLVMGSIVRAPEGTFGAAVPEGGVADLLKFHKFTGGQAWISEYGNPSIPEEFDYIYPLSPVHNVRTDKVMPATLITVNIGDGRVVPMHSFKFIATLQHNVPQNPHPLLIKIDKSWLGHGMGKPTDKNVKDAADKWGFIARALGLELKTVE

T2: GmPOPB-D661A (Galerina marginata, UniProt H2E7Q8 1-730, D661A)
T2 sequence: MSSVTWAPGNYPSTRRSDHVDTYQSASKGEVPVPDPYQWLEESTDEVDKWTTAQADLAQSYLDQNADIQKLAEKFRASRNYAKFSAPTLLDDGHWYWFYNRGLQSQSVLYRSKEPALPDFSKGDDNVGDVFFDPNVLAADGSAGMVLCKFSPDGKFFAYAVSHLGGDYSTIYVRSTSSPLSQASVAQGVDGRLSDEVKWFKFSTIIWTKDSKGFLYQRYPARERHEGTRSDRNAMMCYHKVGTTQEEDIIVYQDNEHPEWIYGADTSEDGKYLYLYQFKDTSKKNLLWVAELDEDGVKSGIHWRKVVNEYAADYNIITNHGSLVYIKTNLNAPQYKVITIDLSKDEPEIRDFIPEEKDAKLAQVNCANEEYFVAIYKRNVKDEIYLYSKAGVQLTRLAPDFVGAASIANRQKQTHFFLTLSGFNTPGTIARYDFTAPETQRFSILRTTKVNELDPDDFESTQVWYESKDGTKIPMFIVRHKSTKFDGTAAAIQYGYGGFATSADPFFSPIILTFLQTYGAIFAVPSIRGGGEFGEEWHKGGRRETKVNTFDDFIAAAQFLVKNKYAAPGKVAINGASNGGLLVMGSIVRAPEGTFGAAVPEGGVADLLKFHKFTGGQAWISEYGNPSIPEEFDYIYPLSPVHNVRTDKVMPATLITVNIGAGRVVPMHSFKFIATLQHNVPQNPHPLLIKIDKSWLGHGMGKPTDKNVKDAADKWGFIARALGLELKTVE

T3: GmPOPB-S577A (Galerina marginata, UniProt H2E7Q8, S577A)
T3 sequence: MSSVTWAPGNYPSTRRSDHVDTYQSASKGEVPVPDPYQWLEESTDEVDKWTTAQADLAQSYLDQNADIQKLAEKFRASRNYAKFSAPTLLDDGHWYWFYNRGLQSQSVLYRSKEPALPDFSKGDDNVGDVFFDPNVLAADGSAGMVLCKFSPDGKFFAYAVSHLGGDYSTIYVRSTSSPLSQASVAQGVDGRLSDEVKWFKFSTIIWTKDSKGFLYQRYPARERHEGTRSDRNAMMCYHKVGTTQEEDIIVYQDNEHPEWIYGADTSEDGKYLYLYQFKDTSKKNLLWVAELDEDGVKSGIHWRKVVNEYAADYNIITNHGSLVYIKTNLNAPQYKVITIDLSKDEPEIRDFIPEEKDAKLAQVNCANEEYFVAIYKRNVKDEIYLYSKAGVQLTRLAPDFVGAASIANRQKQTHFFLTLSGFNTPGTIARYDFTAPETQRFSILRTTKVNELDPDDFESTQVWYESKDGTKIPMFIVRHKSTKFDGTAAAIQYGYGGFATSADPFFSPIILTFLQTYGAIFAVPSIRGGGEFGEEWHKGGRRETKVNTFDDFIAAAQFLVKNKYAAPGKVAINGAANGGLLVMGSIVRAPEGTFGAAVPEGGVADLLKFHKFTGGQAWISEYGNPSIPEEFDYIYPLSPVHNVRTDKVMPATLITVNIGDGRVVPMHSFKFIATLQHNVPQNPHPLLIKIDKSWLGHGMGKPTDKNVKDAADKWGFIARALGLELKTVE


Legend:
GmPOPB [1] = molecular target: T4, GmPOPB (Galerina marginata, UniProt H2E7Q8); assay: Peptide products formed after 1 h and 16 h reaction of truncated substrates with GmPOPB; type: biochemical; set-up: His-tag (TEV-cleavable) (cleaved yes); made in house; host or cells: E. coli BL21(DE3); conditions: 1 μM GmPOPB, 200 μM peptide substrate, performed twice
Protocol: The peptides are colored as Fig. 1c with N-terminus at top. Error bars are standard error of the mean from the average of at least two independent measurements (Supplementary Table 3). c Michaelis–Menten curves show both the 13mer and 14mer are substrates for the enzyme. Fitted values for K d, K m, and k cat are shown in Supplementary Tables 2 and 3. Error bars are standard error of the mean from duplicate measurements. d Cyclic peptide produced after 1 h reaction with 1 μM GmPOPB and 200 μM of various peptide substrates. e Peptide produced after 16 h of reaction with 1 μM GmPOPB and 200 μM of various peptide substrates. Peptide sequences are colored as Fig. 1b and detailed in Supplementary Fig. 1
Comparison between distinct substrates was performed in 50 mM Tris pH 8.0, 50 mM NaCl, 10 mM DTT with varying concentrations of substrates at room temperature. All reactions were performed in duplicates. […] Reactants were separated from products for quantification by injecting 50 μL of each quenched time point mix onto a ZORBAX SB-C18, 5 µm, 9.4 × 50 mm (Agilent) column connected to an Agilent LC-MS (G6130B Single Quad, Agilent Technologies). […] For progress curves with the 35mer substrate, measurements were triplicate and quantification relied on ion counts from mass spectrometry. […] Authentic cyclic peptide was quantified by UV absorbance. […]

GmPOPB [2] = molecular target: T4, GmPOPB; conditions: macrocyclization; 50 mM Tris pH 8.0, 50 mM NaCl, 10 mM DTT, room temperature; GmPOPB 1 μM for 13mer and 14mer, 50 nM for C6S, 20 nM others; duplicates, fit ± SEM
Protocol: Comparison between distinct substrates was performed in 50 mM Tris pH 8.0, 50 mM NaCl, 10 mM DTT with varying concentrations of substrates at room temperature. All reactions were performed in duplicates. Reactions were started by adding GmPOPB (50 nM for GmAMA1_C6S, 1 μM for the 13mer and 14mer, and 20 nM for other substrates) to the assay mixture containing buffer and peptide. Reactions were quenched at several time points by adding 50 μL reaction mixture to 20 μL 6% TFA. Reactants were separated from products for quantification by injecting 50 μL of each quenched time point mix onto a ZORBAX SB-C18, 5 µm, 9.4 × 50 mm (Agilent) column connected to an Agilent LC-MS (G6130B Single Quad, Agilent Technologies). Reactants were separated from products using a gradient from H2O containing 0.1% TFA or 0.1% formic acid and 5% acetonitrile to 50% acetonitrile, at 1.5 ml/min for 8 min. […] The sum of product+substrate was assumed equal to the total initial amount of substrate, product converted from % to concentration. This value was divided by concentration of enzyme present to yield v/E t (min^−1). […] For progress curves with the 35mer substrate, measurements were triplicate and quantification relied on ion counts from mass spectrometry. […] Authentic cyclic peptide was quantified by UV absorbance. […] Kinetic data were fitted to a Michaelis–Menten equation using GraphPad Prism, and values reported are average and standard error of the mean.

[3] = molecular target: T1, GmPOPB-S577A (inactive mutant); assay: Isothermal titration calorimetry, peptide binding to inactive mutant GmPOPB_S577A; conditions: ITC, 20 °C
GmPOPB-D661A = molecular target: T2, GmPOPB-D661A; assay: crystal structure; conditions: both partners purified
GmPOPB-S577A = molecular target: T3, GmPOPB-S577A; assay: crystal structure; conditions: both partners purified

| Molecule | Linear product (hydrolysis instead of macrocyclization) after 16 h of reaction (GmPOPB [1]) | kcat (GmPOPB [2]) | -TΔS ([3]; GmPOPB_S577A, average ± SEM) | ΔG ([3]; GmPOPB_S577A, average ± SEM) | ΔH ([3]; GmPOPB_S577A, average ± SEM) | Kd ([3]; peptide titrated into GmPOPB_S577A, 50 mM Tris pH 8.0, 50 mM NaCl, 10 mM DTT, single-site model, n fixed at 1.0, average ± SEM of at least 2 measurements) | binding result (GmPOPB-D661A) | binding result (GmPOPB-S577A) |
| --- | --- | --- | --- | --- | --- | --- | --- | --- |
| IWGIGCNPWTAEHV [14mer] | less linear product | 0.00967 ± 0.00167 s⁻¹ | -5.8 ± 0.2 kcal/mol | -6.7 ± 0.1 kcal/mol | -0.9 ± 0.2 kcal/mol | 9.5 ± 1.1 µM | – | – |
| IWGIGCNPWTAEHVDQTLASGNDIC (also called 25mer peptide) [25mer substrate (core, linker and recognition tail)] | – | – | – | – | – | – | binds | binds |
